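Five concentrations, 48 hours, 96-well plates. GI50 is the concentration that inhibits growth by half.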 Calls of active or inactive are those of the source. Cut-off read from the data, not from the text of the source: active = GI50 up to about 1.1 µM and inactive = higher.
Key:
Assay in all cases: inhibition of tumour cell growth, NCI panel, 48 h
A498 = tested on: A498
BT-549 = tested on: BT-549
HCC 2998 = tested on: HCC 2998
SF-295 = tested on: SF-295
SR = tested on: SR
SNB-75 = tested on: SNB-75
OVCAR-8 = tested on: OVCAR-8
SK-MEL-5 = tested on: SK-MEL-5
U-251 = tested on: U-251
MOLT-4 = tested on: MOLT-4
Hs-578T = tested on: Hs-578T
ACHN = tested on: ACHN
786-0 = tested on: 786-0
COLO 205 = tested on: COLO 205
UACC-257 = tested on: UACC-257
MDA-N = tested on: MDA-N
PC-3 = tested on: PC-3
T47D = tested on: T47D
Malme-3M = tested on: Malme-3M
CAKI-1 = tested on: CAKI-1
SF-539 = tested on: SF-539
MCF7 = tested on: MCF7
UACC-62 = tested on: UACC-62
DU-145 = tested on: DU-145
TK-10 = tested on: TK-10
NCI/ADR-RES = tested on: NCI/ADR-RES
HT-29 = tested on: HT-29
SNB-19 = tested on: SNB-19
HOP-62 = tested on: HOP-62
M14 = tested on: M14
K562 = tested on: K562
UO-31 = tested on: UO-31
MDA-MB-231 = tested on: MDA-MB-231
SK-MEL-2 = tested on: SK-MEL-2
A549 = tested on: A549
HCT-15 = tested on: HCT-15
MDA-MB-435 = tested on: MDA-MB-435
SF-268 = tested on: SF-268
IGROV-1 = tested on: IGROV-1
SN12C = tested on: SN12C
RXF 393 = tested on: RXF 393
HCT-116 = tested on: HCT-116
EKVX = tested on: EKVX
OVCAR-5 = tested on: OVCAR-5
NCI-H460 = tested on: NCI-H460
OVCAR-4 = tested on: OVCAR-4
NCI-H23 = tested on: NCI-H23
KM12 = tested on: KM12
OVCAR-3 = tested on: OVCAR-3
NCI-H522 = tested on: NCI-H522
RPMI-8226 = tested on: RPMI-8226
NCI-H226 = tested on: NCI-H226
LOX IMVI = tested on: LOX IMVI
SK-MEL-28 = tested on: SK-MEL-28
HOP-92 = tested on: HOP-92
SW-620 = tested on: SW-620
CCRF-CEM = tested on: CCRF-CEM
SK-OV-3 = tested on: SK-OV-3
HL-60 = tested on: HL-60

In the case of `CN(C)CCCN1c2ccccc2CCc2cc([N+](=O)[O-])ccc21`, the GI50 (A498) is reported as 12.8 µM (inactive), the GI50 (BT-549) is reported as 16.6 µM (inactive) and the GI50 (HCC 2998) is reported as 12.2 µM (inactive). For the same molecule, the GI50 (SF-295) was 14.5 µM (inactive), the GI50 (SR) was 18.7 µM (inactive) and the GI50 (SNB-75) was 12.9 µM (inactive). The GI50 (OVCAR-8) was 15.7 µM (inactive), the GI50 (SK-MEL-5) was 12.9 µM (inactive) and the GI50 (U-251) was 17.4 µM (inactive). The GI50 (MOLT-4) was 15.8 µM (inactive), the GI50 (Hs-578T) was 16.2 µM (inactive) and the GI50 (ACHN) was 16.3 µM (inactive). The GI50 (786-0) was 15.2 µM (inactive), the GI50 (COLO 205) was 16.4 µM (inactive) and the GI50 (UACC-257) was 15 µM (inactive). For the same molecule, the GI50 (MDA-N) was 15 µM (inactive), the GI50 (PC-3) was 16.7 µM (inactive) and the GI50 (T47D) was 17.1 µM (inactive). For the same molecule, the GI50 (Malme-3M) was 17.7 µM (inactive), the GI50 (CAKI-1) was 15.5 µM (inactive) and the GI50 (SF-539) was 15.1 µM (inactive). The GI50 (MCF7) was 16.8 µM (inactive), the GI50 (UACC-62) was 14.3 µM (inactive) and the GI50 (DU-145) was 18.2 µM (inactive). The GI50 (TK-10) was 14.6 µM (inactive), the GI50 (NCI/ADR-RES) was 17.2 µM (inactive) and the GI50 (HT-29) was 15.3 µM (inactive). For the same molecule, the GI50 (SNB-19) was 16.9 µM (inactive), the GI50 (HOP-62) was 15.8 µM (inactive) and the GI50 (M14) was 16.3 µM (inactive). For the same molecule, the GI50 (K562) was 16.9 µM (inactive), the GI50 (UO-31) was 14.9 µM (inactive) and the GI50 (MDA-MB-231) was 14.9 µM (inactive). The GI50 (SK-MEL-2) was 20 µM (inactive), the GI50 (A549) was 19.9 µM (inactive) and the GI50 (HCT-15) was 18.5 µM. For the same molecule, the GI50 (MDA-MB-435) was 15.8 µM (inactive), the GI50 (SF-268) was 14.7 µM (inactive) and the GI50 (IGROV-1) was 15.6 µM (inactive). The GI50 (SN12C) was 16.1 µM (inactive), the GI50 (RXF 393) was 12.6 µM (inactive) and the GI50 (HCT-116) was 15.7 µM (inactive). For the same molecule, the GI50 (EKVX) was 20.3 µM (inactive), the GI50 (OVCAR-5) was 16.5 µM (inactive) and the GI50 (NCI-H460) was 15 µM (inactive). For the same molecule, the GI50 (OVCAR-4) was 17.7 µM (inactive), the GI50 (NCI-H23) was 19 µM (inactive) and the GI50 (KM12) was 17.5 µM (inactive). For the same molecule, the GI50 (OVCAR-3) was 17.9 µM (inactive), the GI50 (NCI-H522) was 15.7 µM (inactive) and the GI50 (RPMI-8226) was 18 µM (inactive). The GI50 (NCI-H226) was 17.5 µM (inactive) and the GI50 (LOX IMVI) was 14.4 µM (inactive).

With `CCOc1ccc2nc3cc(/N=N/c4ccc(N)nc4N)ccc3c(N)c2c1` the GI50 (A498) was 8.89 µM (inactive), the GI50 (BT-549) was 13.4 µM (inactive) and the GI50 (HCC 2998) was 1.79 µM (inactive). The GI50 (SF-295) was 22.6 µM (inactive), the GI50 (SK-MEL-28) was 15.6 µM (inactive) and the GI50 (SNB-75) was 1.41 µM (inactive). For the same molecule, the GI50 (OVCAR-8) was 2.73 µM (inactive), the GI50 (HOP-92) was 9.06 µM (inactive) and the GI50 (SK-MEL-5) was 17.3 µM (inactive). For the same molecule, the GI50 (U-251) was 0.578 µM (active), the GI50 (MOLT-4) was 1.46 µM (inactive) and the GI50 (Hs-578T) was 3.13 µM (inactive). The GI50 (ACHN) was 18.2 µM (inactive), the GI50 (786-0) was 1.46 µM (inactive) and the GI50 (COLO 205) was 1.86 µM (inactive). The GI50 (UACC-257) was 19.1 µM (inactive), the GI50 (MDA-N) was 2.24 µM (inactive) and the GI50 (PC-3) was 3.57 µM (inactive). The GI50 (SW-620) was 2.51 µM (inactive), the GI50 (T47D) was 1.67 µM (inactive) and the GI50 (Malme-3M) was 4.45 µM (inactive). The GI50 (CAKI-1) was 36.4 µM (inactive), the GI50 (SF-539) was 2.05 µM (inactive) and the GI50 (MCF7) was 3.15 µM (inactive). For the same molecule, the GI50 (UACC-62) was 14.8 µM (inactive), the GI50 (DU-145) was 6.65 µM (inactive) and the GI50 (TK-10) was 13.9 µM (inactive). For the same molecule, the GI50 (NCI/ADR-RES) was > 88.1 µM (inactive), the GI50 (HT-29) was 3.5 µM (inactive) and the GI50 (SNB-19) was 1.67 µM (inactive). For the same molecule, the GI50 (HOP-62) was 3.75 µM (inactive), the GI50 (M14) was 20 µM (inactive) and the GI50 (K562) was 0.299 µM (active). The GI50 (UO-31) was 28.4 µM (inactive), the GI50 (CCRF-CEM) was 0.136 µM (active) and the GI50 (MDA-MB-231) was 1.54 µM (inactive). For the same molecule, the GI50 (SK-MEL-2) was 2.1 µM (inactive), the GI50 (A549) was 15 µM (inactive) and the GI50 (HCT-15) was 37.8 µM. The GI50 (SK-OV-3) was 7 µM (inactive), the GI50 (MDA-MB-435) was 3.03 µM (inactive) and the GI50 (SF-268) was 1.64 µM (inactive). The GI50 (IGROV-1) was 23.6 µM (inactive), the GI50 (SN12C) was 2.17 µM (inactive) and the GI50 (RXF 393) was 2.19 µM (inactive). The GI50 (HCT-116) was 1.66 µM (inactive), the GI50 (EKVX) was 7.96 µM (inactive) and the GI50 (OVCAR-5) was 21.1 µM (inactive). The GI50 (NCI-H460) was 21.3 µM (inactive), the GI50 (OVCAR-4) was 6.92 µM (inactive) and the GI50 (HL-60) was 1.95 µM (inactive). The GI50 (NCI-H23) was 3.94 µM (inactive), the GI50 (KM12) was 3.37 µM (inactive) and the GI50 (OVCAR-3) was 1.53 µM (inactive). The GI50 (NCI-H522) was 2.99 µM (inactive), the GI50 (RPMI-8226) was 20 µM (inactive) and the GI50 (NCI-H226) was 21.7 µM (inactive). The GI50 (LOX IMVI) was 0.419 µM (active).

For `CSc1c(C(=O)Nc2ccccc2)c(N)nn1-c1ccccc1`, the GI50 (A498) was > 100 µM (inactive), the GI50 (BT-549) was > 100 µM (inactive) and the GI50 (HCC 2998) was > 100 µM (inactive). The GI50 (SK-MEL-28) was > 100 µM (inactive), the GI50 (SR) was > 100 µM (inactive) and the GI50 (SNB-75) was > 100 µM (inactive). For the same molecule, the GI50 (OVCAR-8) was > 100 µM (inactive), the GI50 (SK-MEL-5) was > 100 µM (inactive) and the GI50 (U-251) was > 100 µM (inactive). The GI50 (MOLT-4) was > 100 µM (inactive), the GI50 (Hs-578T) was > 100 µM (inactive) and the GI50 (786-0) was > 100 µM (inactive). For the same molecule, the GI50 (COLO 205) was > 100 µM (inactive), the GI50 (UACC-257) was > 100 µM (inactive) and the GI50 (MDA-N) was > 100 µM (inactive). For the same molecule, the GI50 (PC-3) was > 100 µM (inactive), the GI50 (SW-620) was > 100 µM (inactive) and the GI50 (T47D) was > 100 µM (inactive). For the same molecule, the GI50 (Malme-3M) was > 100 µM (inactive), the GI50 (CAKI-1) was > 100 µM (inactive) and the GI50 (SF-539) was > 100 µM (inactive). The GI50 (MCF7) was > 100 µM (inactive), the GI50 (UACC-62) was > 100 µM (inactive) and the GI50 (DU-145) was > 100 µM (inactive). The GI50 (TK-10) was > 100 µM (inactive), the GI50 (NCI/ADR-RES) was > 100 µM (inactive) and the GI50 (HT-29) was > 100 µM (inactive). For the same molecule, the GI50 (SNB-19) was > 100 µM (inactive), the GI50 (M14) was > 100 µM (inactive) and the GI50 (K562) was > 100 µM (inactive). For the same molecule, the GI50 (UO-31) was 67.9 µM (inactive), the GI50 (CCRF-CEM) was > 100 µM (inactive) and the GI50 (MDA-MB-231) was > 100 µM (inactive). For the same molecule, the GI50 (SK-MEL-2) was > 100 µM (inactive), the GI50 (A549) was > 100 µM (inactive) and the GI50 (HCT-15) was > 100 µM. The GI50 (SK-OV-3) was > 100 µM (inactive), the GI50 (MDA-MB-435) was > 100 µM (inactive) and the GI50 (SF-268) was > 100 µM (inactive). For the same molecule, the GI50 (SN12C) was > 100 µM (inactive), the GI50 (RXF 393) was 56.9 µM (inactive) and the GI50 (HCT-116) was > 100 µM (inactive). For the same molecule, the GI50 (EKVX) was > 100 µM (inactive), the GI50 (OVCAR-5) was > 100 µM (inactive) and the GI50 (NCI-H460) was > 100 µM (inactive). For the same molecule, the GI50 (OVCAR-4) was > 100 µM (inactive), the GI50 (HL-60) was > 100 µM (inactive) and the GI50 (NCI-H23) was > 100 µM (inactive). For the same molecule, the GI50 (KM12) was > 100 µM (inactive), the GI50 (OVCAR-3) was > 100 µM (inactive) and the GI50 (RPMI-8226) was > 100 µM (inactive). For the same molecule, the GI50 (NCI-H226) was > 100 µM (inactive) and the GI50 (LOX IMVI) was > 100 µM (inactive).

— ChEMBL document CHEMBL1201862, “PubChem BioAssay data set” (2004)
